Source: ChEMBL document CHEMBL4813952, “Axial Chiral Binaphthoquinone and Perylenequinones from the Stromata of Hypocrella bambusae Are SARS-CoV-2 Entry Inhibitors” (J Nat Prod, 2021)
Calls of active or inactive are those of the source. No cut-off for these calls is given here.

What was measured:
[1] = molecular target: Spike glycoprotein (Severe acute respiratory syndrome coronavirus 2) (UniProt P0DTC2); assay: Inhibition of spike glycoprotein S in SARS-CoV-2 pseudovirus infected in human 293T/ACE2 cells assessed as inhibition of viral infection; type: cell-based
[2] = Cytotoxicity against human 293T/ACE2 cells measured after 48 hrs by CCK8 assay; type: cell-based
[3] = molecular target: Spike glycoprotein (Severe acute respiratory syndrome coronavirus 2) (UniProt P0DTC2); assay: Inhibition of SARS-CoV-2 spike glycoprotein S expressed in human HEK293T cells cotransfected with pAAV-IRES-GFP assessed as inhibition of membrane fusion to African green monkey Vero E6 cells causing suppression of syncytium formation at 2 uM preincubated for 30 mins measured after 24 hrs by cell-cell fusion based fluorescence microscopy; details: time 24.5 hrs
[4] = test system: Vero C1008; assay: Cytotoxicity against African Green monkey Vero E6 cells at 10 uM measured after 24 to 48 hrs by CCK8 assay; type: cell-based; details: chlorocebus sabaeus, vero c1008, 10 µM, time 24-48 hrs
[5] = test system: SARS-CoV-2; assay: Antiviral activity against SARS-CoV-2 Wuhan-HU-1 infected in African green monkey Vero E6 cells assessed as inhibition of viral infection when cells were preincubated for 1 hr followed by viral infection measured after 24 hrs by qPCR analysis; type: functional, organism-based; details: Severe acute respiratory syndrome coronavirus 2, Wuhan-HU-1, Vero C1008
[6] = molecular target: Spike glycoprotein (Severe acute respiratory syndrome coronavirus 2, UniProt P0DTC2); assay: Binding affinity to SARS-CoV-2 spike glycoprotein S RBD at 25 degreeC by surface plasmon resonance assay
[7] = test system: SARS-CoV-2; assay: Antiviral activity against SARS-CoV-2 Wuhan-HU-1 infection on African green monkey Vero E6 cells assessed by drecrease in viral nucleocapsid N-protein expression measured after 48 hrs by DAPI staining based immunofluorescence microscopy; type: functional, organism-based; details: Severe acute respiratory syndrome coronavirus 2, dose 0.08-2.2 µM
[8] = test system: SARS-CoV-2; assay: Antiviral activity against SARS-CoV-2 Wuhan-HU-1 infection on African green monkey Vero E6 cells assessed by drecrease in viral nucleocapsid N-protein expression at 20 uM measured after 48 hrs by DAPI staining based immunofluorescence microscopy; type: functional, organism-based; details: Severe acute respiratory syndrome coronavirus 2

Row | Compound | inhibition [1] | CC50 at 48 h [2] [µM] | inhibition [3] | Activity [4] | EC50 [5] [µM] | Kd [6] [µM] | Activity [7] | Activity [8]
1 | COc1c2c3c4c(c(OC)c(=O)c5c(O)cc(OC)c(c6c(OC)ccc(c1=O)c63)c54)CC(C)=C2C(C)=O | inactive | > 10 | – | – | – | – | – | –
2 | COc1c(O)c2c(=O)cc(OC)c3c4c(OC)cc(=O)c5c(O)c(OC)c6c(c(c1C[C@](C)(O)[C@H]6C(C)=O)c23)c54 | inactive | 2.5 | inactive | Non-Toxic | 0.21 | 0.0228 | Dose-Dependent Effect | –
3 | COC1=C(CC(C)=O)C(=O)c2c(c(O)cc(OC)c2-c2c(OC)cc(O)c3c2C(=O)C(CC(C)=O)=C(OC)C3=O)C1=O | inactive | > 10 | – | – | – | – | – | inactive
4 | COc1c2c3c4c(c(OC)c(=O)c5c(O)cc(OC)c(c6c(OC)cc(O)c(c1=O)c63)c54)[C@@H](C(C)=O)[C@@](C)(O)C2 [HYPOCRELLIN A] | inactive | 2 | inactive | Non-Toxic | 0.22 | 0.0379 | Dose-Dependent Effect | –
5 | COC1=C2c3c4c5c(c(O)cc(OC)c5c5c(OC)cc(O)c(c35)C1=O)C(=O)[C@@H](OC)[C@@]41C[C@](C)(O)[C@@H]2[C@]1(C)O | inactive | > 10 | – | – | – | – | – | –
6 | COC1=C2c3c4c5c(c(O)cc(OC)c5c5c(OC)cc(O)c(c35)C1=O)C(=O)[C@@H](OC)[C@@]41C[C@](C)(O)[C@@H]2[C@@]1(C)O | inactive | > 10 | – | – | – | – | – | –
7 | COC1=CC(=O)c2c(O)c(OC)c3c(c2C1=O)-c1c(c(OC)c(O)c2c1C(=O)C(OC)=CC2O)C[C@](C)(O)[C@@H]3C(C)=O (stereo not given in full) | inactive | > 10 | – | – | – | – | – | –
